{
  "source": "patent US9452195B2",
  "about": "“Use of CHEC peptides to treat neurological and cardiovascular diseases and disorders” (Drexel University, priority 2010, dated 2016)",
  "key": {"[1]": {"system": "KA induced motor seizures in rats", "test": "Kainic acid (KA) induced motor seizures in rats, graded by Racine scale", "format": "in vivo, rat", "parameters": "key to Max Seizure Stage: 1: hypoactivity, mouth and facial automatism; 2: head nodding and mastication; 3: forelimb clonus without rearing; 4: bilateral forelimb clonus and rearing; 5: rearing and loss of posture; Status epilepticus: stage 4-5 lasting for 30 min,", "method": "Kainic acid (KA) was administered intraperitoneal (IP) to rats at doses ranging from […]. Rats age postnatal day (P) 12-15 were administered 2 mg/kg KA. Rats age P35-40 were administered 6 mg/kg KA. The KA was delivered in a constant volume of phosphate buffer (5 ml/kg) and reliably produced motor seizure activity.\nFollowing IP administration of KA, rats were video-recorded for 3 hours, and then daily for 3 hours. The video recordings are later scored blind. The severity and latency of seizures is graded for P35 rats by a classical scale shown in Table 1 (Racine, 1972, Electroencephalog. Clin. Neurophysiol. 32:281-294).\nRats (250-300 g) are done in pairs and administered either a control peptide/vehicle or CHEC peptide in vehicle at various intervals pre- or post KA treatment. Control or CHEC peptide are administered either 4, 2 or 0.5 hours pre-KA or 0.25, and 0.5 hrs post-KA. The effects of CHEC-7 and CHEC-9 are compared because the peptides have different pharmakinetic profiles in rat.\nForty minutes prior to KA administration, the rats were administered either control peptide or CHEC-9 at the indicated dosages and routes of administration. The resulting motor seizures were graded as described elsewhere herein. […] In one set of experiments, rats were pre-fed lecithin or phosphatidylcholine prior to administering the KA."}, "[2]": {"system": "hippocampal neuronal activity in kainic acid-treated rats", "test": "Multiunit activity in CA1 cell field of hippocampus of kainic acid treated rats", "format": "in vivo, rat", "details": "CHEC-9 1 mg/kg orally 40 min before KA 10 mg/kg IP", "source_text": "FIG. 1, is a graph depicting multiunit activity recorded from the CA1 cell field of the hippocampus of awake, freely moving kainic acid-treated rats that have been treated either with CHEC-9 or vehicle. Multiunit activity is presented as impulses recorded per second and provided as a percentage of baseline activity measured prior to seizure induction.\nRats were implanted with a multichannel electrode bundle placed in the CA1 cell field of the hippocampus one week prior to the experiment. Baseline hippocampal neuronal activity (impulses per second) was collected during a 30 minute control period. After 30 minutes of baseline neuronal activity was collected, either CHEC-9 (1 mg/kg) or vehicle was administered orally 40 min prior to IP administration of kainic acid (10 mg/kg). The duration of the KA administration varied. Neuronal activity in response to KA administration is presented as % of baseline activity (FIG. 1)."}, "[3]": {"system": "phospholipase A2 (sPLA2)", "details": "statement referring to earlier patents and applications; cited from earlier work"}, "[4]": {"system": "neuron", "details": "cited from earlier work"}},
  "data": [
    {"substance": "CHEASAAQC [CHEC-9]", "values": [
      {"measurement": "Max Seizure Stage", "setting": "[1]; individual rat, C9 0.5 mg/kg sc 40 min before KA 6 mg/kg ip", "value": 2},
      {"measurement": "Max Seizure Stage", "setting": "[1]; individual rat, C9 1.0 mg/kg po 40 min before KA 5 mg/kg ip", "value": 1},
      {"measurement": "Max Seizure Stage", "setting": "[1]; individual rats, C9 0.5 mg/kg sc 40 min before KA 5 mg/kg ip", "value": 1},
      {"measurement": "Max Seizure Stage", "setting": "[1]; individual rats, C9 1.0 mg/kg po 40 min before KA 10 mg/kg ip, female rats", "value": 3},
      {"measurement": "Max Seizure Stage", "setting": "[1]; individual rats, C9 1.0 mg/kg po 40 min before KA 10 mg/kg ip, male rats", "value": 1},
      {"measurement": "likelihood of severe motor seizures versus vehicle control", "setting": "[1]; rats 250-300 g, peptide given 40 min before KA", "value": "vehicle control were more likely to exhibit severe motor seizures than rats that were administered CHEC-9"},
      {"measurement": "seizure symptoms by the end of the experiment", "setting": "[2]; vehicle rat reached status epilepticus", "value": "no obvious symptoms"},
      {"measurement": "effect of KA on neuronal activity (multiunit activity, % of baseline)", "setting": "[2]; versus vehicle", "value": "much smaller effect of KA on neuronal activity"},
      {"measurement": "inhibition of phospholipase A2 / sPLA2", "setting": "[3]", "value": "inhibit phospholipase A2"}
    ]},
    {"substance": "CHEASQC [CHEC-7]", "values": [
      {"measurement": "inhibition of phospholipase A2 / sPLA2", "setting": "[3]", "value": "even more potent as a sPLA2 inhibitor than CHEC-9"}
    ]},
    {"substance": "CAHAQAESC [CHEC-9 peptide variant]", "values": [
      {"measurement": "inhibition of phospholipase A2 / sPLA2", "setting": "[3]", "value": "inhibit phospholipase A2"},
      {"measurement": "neuron protective activity", "setting": "[4]", "value": "also has neuron protective activity"}
    ]}
  ]
}
